This is an account of results in patent publication US20160007606A1, “MICROBIOCIDAL PYRAZOLE DERIVATIVES” (SYNGENTA PARTICIPATIONS AG, priority 2012, published 2016).

On to `Cc1cc(C(F)(F)F)nn1CC(=O)N1CCN(c2nc(C3=NOC(c4c(F)cccc4F)C3)cs2)CC1C(=O)O` (stereo not shown), for which the melting point is 178 to 185 °C.
